Peptide text beside a SMILES is read from it.
Tests used:
FITC-αIIb-TM = target: T1, FITC-αIIb-TM (Homo sapiens, UniProt P08514); assay: FRET heterodimeric association in micelles; type: binding; details: pH 7.5
T1 construct: designated αIIb-TM, spanning residues Trp968 to Lys989 of αIIb was synthesized; made in house; host or cells: chemical peptide synthesis (no expression host)
Description: FRET provided a more direct measure of the αIIb-TM/anti-αIIb heterodimeric association. […] Because the appropriate parameter for the association of polypeptides in micelles is generally the polypeptide concentration in the detergent micellar phase rather than the bulk polypeptide concentration, dissociation constants are often given in mole fraction units (polypeptide/detergent ratios).
Fluorescence resonance energy transfer (FRET) experiments were conducted on an ATF 105 spectrofluorometer (Aviv Biomedical, Inc., Lakewood, N.J.) using 0.3 cm path length cuvettes. […] Reference samples contain the same amount of FITC-αIIb-TM and non-labeled anti-αIIb to their corresponding FRET samples. Emission and excitation scans of the 1:1 mixture of FITC-αIIb-TM/coum-anti-αIIb were carried out to determine the optimal excitation and emission wavelengths. Excitation at 415 nm was selected. For the titration experiments in FIG. 2b, the emission at 500 nm was monitored. A slit width of 1.5 nm was used for both the excitation and emission. The signal and QC PMT high voltages were set at 737.3 V and 75.0 V, respectively. For the time-domain experiments, an experiment time of 600 seconds with 10 seconds of interval time and 10 seconds of average time was used. […] The fluorescence intensity values were used after correction of the inner filter effects using the standard method. […]

α2 TM domain = target: T2, α2 TM domain (Homo sapiens, UniProt P17301); assay: DN-TOXCAT heterodimerization; type: cell-based; details: coexpressed in bacterial membranes
T2 construct: expressed in transfected cells; host or cells: E. coli MM39, pDNToxR-Duet
Description: (§1) Both the affinity and specificity of the membrane protein-binding peptides for their targets when coexpressed in bacterial membranes were assessed with a DN-“TOXCAT” assay (FIGS. 3a-3c). In TOXCAT, a TM sequence of interest is fused to a ToxR protein (TM-ToxR) that binds to the ctx promoter as a dimer, which induces expression of chloramphenicol acetyltransferase (CAT) (W. P. Russ, D. M. Engelman, Proc. Natl. Acad. Sci. U.S.A. 96, 863 (1999); D. Langosch, B. Brosig, H. Kolmar, H. J. Fritz, J. Mol. Biol. 263, 525 (1996)). In the DN assay, the TM1-ToxR fusion protein is coexpressed with a second fusion protein (TM2-ToxR*) containing a nonfunctional mutant of the ToxR domain. TM-driven dimerization leads to a ToxR-ToxR* dimer that is unable to bind the ctx promoter or to induce CAT synthesis (FIG. 3a). The resulting decrease in CAT activity can be used to monitor the formation of a heterodimeric TM complex. In principle, this assay could be accomplished by adding an exogenous synthetic peptide (D. Gerber, N. Sal-Man, Y. Shai, J. Mol. Biol. 339, 243 (2004)); however, it is difficult to assure that different peptides will be similarly inserted into the Escherichia coli inner membrane.
(§2) For testing the specificity of the designed membrane protein-binding polypeptide sequences against the integrin TM domains, the designed sequences (anti-αIIb and anti-αV) were cloned into MCS1 of the Duet vector and the integrin TM domains into MCS2 of the Duet vector. In this configuration, the integrin TMs compete for the homodimers formed by the polypeptide sequences, with the decrease in CAT signal proportional to the extent of heterodimerization between a given integrin TM and polypeptide sequence relative to the homodimerization of the polypeptide sequence.
(§3) Single MM39 colonies containing pDNToxR-Duet constructs from selective plates were chosen, inoculated in 5 mL of LB medium containing 100 μg/mL ampicillin and grown to an OD600 of 0.2 at 37° C. with vigorous shaking. IPTG was added to the medium at a final concentration of 0.1 mM IPTG and grown to an OD600 of 0.7. Purification, immunoblotting, CAT ELISA and MalE complementation assays are essentially as described previously. Li, R., Gorelik, R., Nanda, V., Law, P. B., Lear, J. D., DeGrado, W. F. and Bennett, J. S. J. Biol. Chem. 2004, 279, 26666-26673 (2004). For immunoblotting, anti-MBP (NEB) was used for pccKAN (TOXCAT) constructs, whereas anti-myc (Covance) and anti-HA (Covance) were used for pDNToxR-Duet constructs. CAT ELISA results are an average of 3 independent replicates.

αv TM domain = target: T3, αv TM domain (Homo sapiens, UniProt P06756); assay: DN-TOXCAT heterodimerization; type: cell-based; details: coexpressed in bacterial membranes
T3 construct: expressed in transfected cells; host or cells: E. coli MM39, pDNToxR-Duet
Description: as §1, §2, §3

β1 TM domain = target: T4, β1 TM domain (Homo sapiens, UniProt P05556); assay: DN-TOXCAT heterodimerization; type: cell-based; details: coexpressed in bacterial membranes
T4 construct: expressed in transfected cells; host or cells: E. coli MM39, pDNToxR-Duet
Description: as §1, §2, §3

[1] = tested on: gel-filtered human platelets; assay: Platelet aggregation, turbidometric; type: cell-based
Description: Platelet-rich plasma, prepared from human blood anti-coagulated with 0.1 volume of 0.13 M sodium citrate, was gel-filtered on Sepharose 2B (Amersham Biosciences, Piscataway, N.J.) using an elution buffer containing 137 mM NaCl, 2.7 mM KCl, 1 mM MgCl2, 5.6 mM glucose, 0.35 mg/ml bovine serum albumin, 3.3 mM NaH2PO4, and 4 mM HEPES (pH=7.4), as previously described. Jordan P et al. Nature 411, 909-917 (2001). Turbidometric measurements of platelet aggregation were performed in a Chrono-Log Lumi-Dual Aggregometer. Aliquots (0.4 ml) of the gel-filtered platelet suspension were supplemented with 200 μg/ml human fibrinogen (Enzyme Research Labs., South Bend, Ind.) and 1 mM CaCl2 (final concentrations) prior to adding platelet agonists. The polypeptide was added from a DMSO solution such that the final concentration of DMSO was no greater than 0.5%. All controls also had 0.5% DMSO in the buffer.

αVβ3 = target: T5, αVβ3 (Homo sapiens, UniProt P06756); assay: Platelet adhesion to immobilized osteopontin; type: cell-based
T5 construct: Platelets express a second integrin with a β3 subunit, αVβ3; endogenous in cells; host or cells: gel-filtered human platelets
Description: The integrin αVβ3 mediates adhesion of platelets to the matrix protein osteopontin, potentially exposed to the circulating blood by rupture of an atherosclerotic plaque. […] The potency of anti-αv in inducing platelet adhesion to osteopontin was approximately 10-fold lower than that of anti-αIIb in inducing platelet aggregation (FIG. 11). Adhesion of platelets in 100 μl aliquots of gel-filtered human platelets to immobilized osteopontin was induced by the indicated concentrations of anti-αV, either alone or in the presence of the calcium chelator 2.5 mM EDTA or the global platelet signal transduction inhibitor 2 μM PGE1. Platelets stimulated by 20 μM ADP served as a positive control. Platelet adhesion was quantitated using a colorimetric assay based on measurement of platelet acid phosphatase activity. The data shown in FIG. 11 are the mean and standard error of measurements made in triplicate. Anti-αV-induced adhesion was prevented by agents that inhibit the interaction of αVβ3's extracellular ligand-binding site with osteopontin, including EDTA or the specific RGD-containing αVβ3 antagonist XJ735, confirming that anti-αV induced platelet adhesion to osteopontin is mediated by αVβ3.
Platelet adhesion to osteopontin was measured as previously described. See Fleming K G J. Mol. Biol. 323, 563-571 (2002). Briefly, 96-well flat bottom microtiter plates (Immulon 2, Dynatech, Chantilly Va.) were coated with 5 μg/ml of recombinant osteopontin dissolved in 50 mM NaHCO3 buffer, pH 8.0, containing 150 mM NaCl. Unoccupied protein binding sites on the wells were blocked with 5 mg/ml bovine serum albumin dissolved in the same buffer. One hundred μl aliquots of a gel-filtered platelet suspension containing ≈2-5×10^6 platelets were added to the protein-coated wells in the absence or presence of anti-αV or ADP. Following an incubation for 30 min at 37° C. without agitation, the plates were washed four times and the number of adherent platelets measured using a colorimetric assay that measure platelet acid phosphatase activity. The polypeptide was added from a DMSO solution such that the final concentration of DMSO was no greater than 0.5%. All controls also had 0.5% DMSO in the buffer.

T5 sequence (P06756 891-1048 limits assumed): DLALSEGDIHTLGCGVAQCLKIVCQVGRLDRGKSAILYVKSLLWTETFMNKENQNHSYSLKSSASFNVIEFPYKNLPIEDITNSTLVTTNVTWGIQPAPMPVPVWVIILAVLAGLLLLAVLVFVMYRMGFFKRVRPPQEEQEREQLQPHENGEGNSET
T5 sequence (P06756 31-889 partner limits assumed): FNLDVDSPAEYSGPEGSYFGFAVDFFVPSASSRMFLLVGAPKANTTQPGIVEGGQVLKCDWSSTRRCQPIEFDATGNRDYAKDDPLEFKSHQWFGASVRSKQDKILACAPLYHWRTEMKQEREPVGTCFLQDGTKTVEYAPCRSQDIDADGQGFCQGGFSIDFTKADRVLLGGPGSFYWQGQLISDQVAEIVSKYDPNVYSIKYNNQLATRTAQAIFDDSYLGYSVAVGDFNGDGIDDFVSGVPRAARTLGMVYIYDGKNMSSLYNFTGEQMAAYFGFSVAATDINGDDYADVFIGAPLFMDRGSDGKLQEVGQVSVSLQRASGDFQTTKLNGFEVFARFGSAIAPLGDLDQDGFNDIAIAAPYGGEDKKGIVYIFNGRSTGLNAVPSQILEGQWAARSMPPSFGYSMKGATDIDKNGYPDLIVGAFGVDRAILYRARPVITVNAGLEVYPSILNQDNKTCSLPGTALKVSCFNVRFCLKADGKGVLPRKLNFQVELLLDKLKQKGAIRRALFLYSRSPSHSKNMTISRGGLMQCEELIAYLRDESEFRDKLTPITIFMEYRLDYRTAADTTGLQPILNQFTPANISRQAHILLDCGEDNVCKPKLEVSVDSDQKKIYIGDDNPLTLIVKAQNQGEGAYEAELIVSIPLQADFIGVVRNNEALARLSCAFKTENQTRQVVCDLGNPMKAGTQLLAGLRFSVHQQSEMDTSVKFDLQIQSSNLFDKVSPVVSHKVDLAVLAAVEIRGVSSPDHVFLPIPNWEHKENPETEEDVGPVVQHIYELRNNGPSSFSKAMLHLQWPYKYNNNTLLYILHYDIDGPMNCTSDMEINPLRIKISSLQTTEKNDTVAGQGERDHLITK
T5 sequence (P05106 27-788 partner): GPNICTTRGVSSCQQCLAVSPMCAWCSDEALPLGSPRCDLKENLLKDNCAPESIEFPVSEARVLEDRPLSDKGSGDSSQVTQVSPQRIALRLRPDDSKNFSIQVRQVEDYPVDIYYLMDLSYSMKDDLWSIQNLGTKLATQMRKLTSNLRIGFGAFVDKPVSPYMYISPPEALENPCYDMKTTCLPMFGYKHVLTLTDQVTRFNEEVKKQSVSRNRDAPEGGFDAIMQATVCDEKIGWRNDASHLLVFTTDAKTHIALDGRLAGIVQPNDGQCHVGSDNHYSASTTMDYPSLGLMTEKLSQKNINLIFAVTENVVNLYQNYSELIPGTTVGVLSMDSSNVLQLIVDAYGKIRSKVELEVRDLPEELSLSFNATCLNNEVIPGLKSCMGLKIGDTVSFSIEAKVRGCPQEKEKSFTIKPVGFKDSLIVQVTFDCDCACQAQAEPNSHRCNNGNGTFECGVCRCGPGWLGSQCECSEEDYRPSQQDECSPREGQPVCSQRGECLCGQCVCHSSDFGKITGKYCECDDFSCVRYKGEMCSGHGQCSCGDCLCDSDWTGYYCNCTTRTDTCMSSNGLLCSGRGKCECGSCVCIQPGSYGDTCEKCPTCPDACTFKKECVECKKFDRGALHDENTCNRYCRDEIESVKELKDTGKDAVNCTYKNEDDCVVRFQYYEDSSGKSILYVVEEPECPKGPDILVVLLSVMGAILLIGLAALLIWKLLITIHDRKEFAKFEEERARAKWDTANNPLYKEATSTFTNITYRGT
T3 sequence (P06756 with tags, fused parts or gaps limits assumed): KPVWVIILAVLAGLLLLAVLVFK
T2 sequence (P17301 with tags, fused parts or gaps limits assumed): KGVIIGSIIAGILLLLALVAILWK
T4 sequence (P05556 with tags, fused parts or gaps limits assumed): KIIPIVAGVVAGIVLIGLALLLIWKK
T1 sequence (P08514 999-1020 limits assumed): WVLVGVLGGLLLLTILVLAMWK

Compound	apparent Kdiss for the αIIb-TM/anti-αIIb interaction (FITC-αIIb-TM)	interaction with α2 TM domain (α2 TM domain)	interaction with αv TM domain (αv TM domain)	interaction with β1 TM domain (β1 TM domain)	induced aggregation in the presence of PGE1 and apyrase ([1]; 1 μM peptide, 2 μM PGE1, 10 units/ml apyrase)	induced aggregation in the presence of EDTA, Arg-Gly-Asp-Ser or antibody A2A9 ([1]; agents that directly target αIIbβ3)	platelet aggregation response ([1]; gel-filtered human platelets)	potency in inducing platelet adhesion to osteopontin, lower than that of anti-αIIb in inducing platelet aggregation (αVβ3)	induced adhesion after pre-incubating the platelets with PGE1 (αVβ3; 2 μM PGE1)	induced adhesion in the presence of EDTA or αVβ3 antagonist XJ735 (αVβ3; 2.5 mM EDTA)	platelet adhesion to osteopontin (αVβ3; absence of pharmacological platelet agonists)
CC[C@H](C)[C@H](NC(=O)[C@H](Cc1ccccc1)NC(=O)[C@H](Cc1ccccc1)NC(=O)[C@@H]1CCCN1C(=O)[C@H](CC(C)C)NC(=O)[C@H](CC(C)C)NC(=O)[C@H](CCSC)NC(=O)[C@@H](NC(=O)[C@H](Cc1ccc(O)cc1)NC(=O)[C@H](C)NC(=O)[C@H](CCCCN)NC(=O)[C@@H](N)CCCCN)C(C)C)C(=O)NCC(=O)N[C@@H](CC(C)C)C(=O)N[C@@H](CC(C)C)C(=O)N[C@@H](CC(C)C)C(=O)NCC(=O)N[C@@H](CC(C)C)C(=O)N[C@H](C(=O)N[C@@H](Cc1ccccc1)C(=O)NCC(=O)NCC(=O)N[C@@H](C)C(=O)N[C@@H](Cc1ccccc1)C(=O)N[C@@H](Cc1c[nH]c2ccccc12)C(=O)NCC(=O)N1CCC[C@H]1C(=O)N[C@@H](C)C(=O)N[C@@H](CCCNC(=N)N)C(=O)N[C@@H](Cc1c[nH]cn1)C(=O)N[C@@H](CC(C)C)C(=O)N[C@@H](CCCCN)C(=O)N[C@@H](CCCCN)C(N)=O)[C@@H](C)CC [anti-αIIb] (H-KKAYVMLLPFFIGLLLGLIFGGAFWGPARHLKK-NH2; N-terminus assumed)	3.2±0.5×10^−4 mole fraction units	failed to significantly interact	failed to significantly interact	failed to significantly interact	only minimally affected	inhibited	highly active				
AYVFILLSFILGTLLGFLVMFWA [anti-αV]			much greater affinity than the α2, αIIb, β1, or β3 domains					approximately 10 fold	only minimally affected	prevented	induced robust platelet adhesion to osteopontin
